# Laboratory results: ChEMBL document CHEMBL5042501, “Gwanakosides A and B, 6-Deoxy-α-l-talopyranose-Bearing Aromatic Metabolites from a Streptomyces sp. and Coculture with Pandoraea sp” (J Nat Prod, 2022)
# Columns and labels:
# [1] = system: Mycobacterium tuberculosis; assay: Antibacterial activity against Mycobacterium tuberculosis mc2 6230 assessed as bacterial growth inhibition incubated for 5 days by resazurin microtiter assay; format: functional; conditions: mc2 6230, 120 h, time 5 day
# [2] = Inhibition of Staphylococcus aureus ATCC6538p Sortase A incubated for 1 hr by fluorescence spectrophotometric analysis
# [3] = system: SNU-638; assay: Antiproliferative activity against human SNU-638 cells assessed as reduction in cell viability incubated for 72 hr by SRB assay; format: functional, cell-based; conditions: SNU-638, 72 h
# [4] = system: Staphylococcus aureus; assay: Antibacterial activity against Staphylococcus aureus ATCC 25923 assessed as inhibition of bacterial growth incubated for 24 hr by CLSI based broth microdilution method; format: functional
# [5] = system: Enterococcus faecalis; assay: Antibacterial activity against Enterococcus faecalis ATCC 19433 assessed as inhibition of bacterial growth incubated for 24 hr by CLSI based broth microdilution method; format: functional
# [6] = system: Klebsiella pneumoniae; assay: Antibacterial activity against Klebsiella pneumoniae ATCC 10031 assessed as inhibition of bacterial growth incubated for 24 hr by CLSI based broth microdilution method; format: functional
# [7] = system: Escherichia coli; assay: Antibacterial activity against Escherichia coli ATCC 25922 assessed as inhibition of bacterial growth incubated for 24 hr by CLSI based broth microdilution method; format: functional
# [8] = system: A498; assay: Antiproliferative activity against human A498 cells assessed as reduction in cell viability incubated for 72 hr by SRB assay; format: functional, cell-based; conditions: A498, 72 h
# [9] = system: HCT-116; assay: Antiproliferative activity against human HCT116 cells assessed as reduction in cell viability incubated for 72 hr by SRB assay; format: functional, cell-based; conditions: HCT-116, 72 h
# [10] = system: MDA-MB-231; assay: Antiproliferative activity against human MDA-MB-231 cells assessed as reduction in cell viability incubated for 72 hr by SRB assay; format: functional, cell-based; conditions: MDA-MB-231, 72 h
# [11] = system: SK-HEP1; assay: Antiproliferative activity against human SK-HEP1 cells assessed as reduction in cell viability incubated for 72 hr by SRB assay; format: functional, cell-based; conditions: SK-HEP1, 72 h
# [12] = system: Candida albicans; assay: Antifungal activity against Candida albicans ATCC 10231 assessed as fungal growth inhibition incubated for 24 hrs; format: functional
# [13] = system: Aspergillus fumigatus; assay: Antifungal activity against Aspergillus fumigatus HIC 6094 assessed as fungal growth inhibition incubated for 48 hrs; format: functional
# [14] = system: Trichophyton rubrum; assay: Antifungal activity against Trichophyton rubrum NBRC 9185 assessed as fungal growth inhibition incubated for 96 hrs; format: functional
# [15] = system: Trichophyton mentagrophytes; assay: Antifungal activity against Trichophyton mentagrophytes IFM 40996 assessed as fungal growth inhibition incubated for 96 hrs; format: functional
# [16] = system: Enterococcus faecium; assay: Antibacterial activity against Enterococcus faecium ATCC 19434 assessed as inhibition of bacterial growth incubated for 24 hr by CLSI based broth microdilution method; format: functional
# [17] = system: Salmonella enterica; assay: microbe, parasite or virus in culture; conditions: ATCC 14028, 24 h
# Description: Antibacterial activity against Salmonella enterica ATCC 14028 assessed as inhibition of bacterial growth incubated for 24 hr by CLSI based broth microdilution method
Structure (SMILES),MIC [1],IC50 [2],IC50 [3],MIC [4],MIC [5],MIC [6],MIC [7],IC50 [8],IC50 [9],IC50 [10],IC50 [11],MIC [12],MIC [13],MIC [14],MIC [15],MIC [16],MIC [17],MIC50 [1]
Cc1c(Cl)c(O[C@@H]2O[C@@H](C)[C@@H](O)[C@@H](O)[C@H]2O)c2cc(O[C@@H]3O[C@@H](C)[C@@H](O)[C@@H](O)[C@H]3O)ccc2c1Cl,15 µg/mL,63.3 µg/mL,8.6 µM,8 µg/mL,16 µg/mL,32 µg/mL,> 128 µg/mL,18.8 µM,5.6 µM,19.4 µM,14.7 µM,> 128 µg/mL,> 128 µg/mL,> 128 µg/mL,> 128 µg/mL,16 µg/mL,16 µg/mL,
COc1nc2ccc(Br)cc2cc1[C@@H](c1ccccc1)[C@@](O)(CCN(C)C)c1cccc2ccccc12 [BEDAQUILINE],,,,,,,,,,,,,,,,,,0.5 µg/mL
COc1cc([C@@H]2c3cc4c(cc3[C@@H](O[C@@H]3O[C@@H]5CO[C@@H](C)O[C@H]5[C@H](O)[C@H]3O)[C@H]3COC(=O)[C@H]23)OCO4)cc(OC)c1O [ETOPOSIDE],,,0.4 µM,,,,,0.23 µM,0.25 µM,2.8 µM,0.22 µM,,,,,,,
CN(C)[C@@H]1C(O)=C(C(N)=O)C(=O)[C@@]2(O)C(O)=C3C(=O)c4c(O)cccc4[C@@](C)(O)[C@H]3C[C@@H]12 [TETRACYCLINE],,,,,,0.25 µg/mL,,,,,,,,,,,,
Cc1cc2c(c(O[C@@H]3O[C@@H](C)[C@@H](O)[C@@H](O)[C@H]3O)c1)-c1cc3c(c(O)c1[C@@H](O)C2)C(=O)c1c(O)cc(O)cc1C3=O,,,> 20 µM,> 128 µg/mL,> 128 µg/mL,> 128 µg/mL,> 128 µg/mL,> 20 µM,> 20 µM,> 20 µM,> 20 µM,,,,,128 µg/mL,> 128 µg/mL,
CC1(C)S[C@@H]2[C@H](NC(=O)[C@H](N)c3ccccc3)C(=O)N2[C@H]1C(=O)O [AMPICILLIN],,,,0.13 µg/mL,0.5 µg/mL,,8 µg/mL,,,,,,,,,0.25 µg/mL,0.13 µg/mL,
